Measurements reported in ChEMBL document CHEMBL4680138, “A 18β-glycyrrhetinic acid conjugate with Vorinostat degrades HDAC3 and HDAC6 with improved antitumor effects” (Eur J Med Chem, 2020).
Calls of active or inactive are those of the source. The rule behind the calls is not given here.

How the values were obtained:
[1] = test system: HL-60; assay: Induction of apoptosis in human HL-60 cells assessed as necrotic cells at 0.5 uM measured after 24 hrs by Annexin-V/FITC and propidium iodide staining based flow cytometry (reference value: 1.01 %); type: functional
[2] = test system: HL-60; assay: Induction of apoptosis in human HL-60 cells assessed as late apoptotic cells at 0.5 uM measured after 24 hrs by Annexin-V/FITC and propidium iodide staining based flow cytometry (reference value: 7.24 %); type: functional
[3] = test system: HL-60; assay: Induction of apoptosis in human HL-60 cells assessed as increase in accumulation at sub-G1 phase at 1 uM after 24 hrs by propidium iodide staining based flow cytometry (reference value: 2.72 %); type: functional
[4] = test system: HL-60; assay: Induction of apoptosis in human HL-60 cells assessed as late apoptotic cells at 2 uM measured after 24 hrs by Annexin-V/FITC and propidium iodide staining based flow cytometry (reference value: 7.24 %); type: functional
[5] = test system: HL-60; assay: Upregulation of acetylated H3 level in human HL-60 cells at 2 uM measured after 12 hrs by Western blot analysis; type: functional, cell-based
[6] = test system: HL-60; assay: Induction of apoptosis in human HL-60 cells assessed as necrotic cells at 2 uM measured after 24 hrs by Annexin-V/FITC and propidium iodide staining based flow cytometry (reference value: 1.01 %); type: functional
[7] = test system: HL-60; assay: Induction of apoptosis in human HL-60 cells assessed as increase in accumulation at sub-G1 phase at 2 uM after 24 hrs by propidium iodide staining based flow cytometry (reference value: 2.72 %); type: functional
[8] = test system: HL-60; assay: Induction of apoptosis in human HL-60 cells assessed as early apoptotic cells at 1 uM measured after 24 hrs by Annexin-V/FITC and propidium iodide staining based flow cytometry (reference value: 2.46 %); type: functional
[9] = test system: HL-60; assay: Induction of apoptosis in human HL-60 cells assessed as late apoptotic cells at 1 uM measured after 24 hrs by Annexin-V/FITC and propidium iodide staining based flow cytometry (reference value: 7.24 %); type: functional
[10] = test system: HL-60; assay: Induction of apoptosis in human HL-60 cells assessed as increase in accumulation at sub-G1 phase at 0.5 uM after 24 hrs by propidium iodide staining based flow cytometry (reference value: 2.72 %); type: functional
[11] = test system: HL-60; assay: Induction of apoptosis in human HL-60 cells assessed as early apoptotic cells at 2 uM measured after 24 hrs by Annexin-V/FITC and propidium iodide staining based flow cytometry (reference value: 2.46 %); type: functional
[12] = test system: HL-60; assay: Induction of apoptosis in human HL-60 cells assessed as live cells at 1 uM measured after 24 hrs by Annexin-V/FITC and propidium iodide staining based flow cytometry (reference value: 89.29 %); type: functional
[13] = test system: HL-60; assay: Induction of apoptosis in human HL-60 cells assessed as live cells at 2 uM measured after 24 hrs by Annexin-V/FITC and propidium iodide staining based flow cytometry (reference value: 89.29 %); type: functional
[14] = test system: HL-60; assay: Induction of apoptosis in human HL-60 cells assessed as necrotic cells at 1 uM measured after 24 hrs by Annexin-V/FITC and propidium iodide staining based flow cytometry (reference value: 1.01 %); type: functional
[15] = test system: HL-60; assay: Induction of apoptosis in human HL-60 cells assessed as live cells at 0.5 uM measured after 24 hrs by Annexin-V/FITC and propidium iodide staining based flow cytometry (reference value: 89.29 %); type: functional
[16] = test system: HL-60; assay: Upregulation of acetylated alpha-tubulin level in human HL-60 cells at 2 uM measured after 12 hrs by Western blot analysis; type: functional, cell-based
[17] = test system: HL-60; assay: Induction of apoptosis in human HL-60 cells assessed as early apoptotic cells at 0.5 uM measured after 24 hrs by Annexin-V/FITC and propidium iodide staining based flow cytometry (reference value: 2.46 %); type: functional
[18] = test system: PC-3; assay: Cytotoxicity against human PC-3 cells assessed as reduction in cell viability after 96 hrs by MTT assay; type: functional, cell-based; settings: PC-3, 96 h
[19] = test system: HL-60; assay: Antiproliferative activity against human HL-60 cells assessed as cell growth inhibition after 72 hrs by trypan blue staining based cell counting assay; type: functional; settings: HL-60, 72 h

Q: Which results are given for `O=C(CCCCCCC(=O)Nc1ccccc1)NO` [VORINOSTAT]?
A: Activity [1]: 1.94%; Activity [2]: 8.95%; Activity [3]: 5.34%; Activity [4]: 39.71%; Activity [5]: Active; Activity [6]: 5.87%; Activity [7]: 43.31%; Activity [8]: 2.42%; Activity [9]: 12.96%; Activity [10]: 2.07%; Activity [11]: 5.02%; Activity [12]: 82.27%; Activity [13]: 49.4%; Activity [14]: 2.36%; Activity [15]: 86.69%; Activity [16]: Active; Activity [17]: 2.41%

Q: `CC1(C)[C@@H](O)CC[C@]2(C)[C@H]3C(=O)C=C4[C@@H]5C[C@@](C)(C(=O)OCCOc6ccc(NC(=O)CCCCCCC(=O)NO)cc6)CC[C@]5(C)CC[C@@]4(C)[C@]3(C)CC[C@@H]12` was tested. Which IC50 [18] did it give?
A: 8.43 µM

Q: What about the IC50 [19] of the same molecule?
A: 4.42 µM

Q: `CC1(C)[C@@H](O)CC[C@]2(C)[C@H]3C(=O)C=C4[C@@H]5C[C@@](C)(C(=O)N6CCN(c7ccc(NC(=O)CCCCCC(=O)NO)cc7)CC6)CC[C@]5(C)CC[C@@]4(C)[C@]3(C)CC[C@@H]12` was tested. Which IC50 [18] did it give?
A: 3.09 µM

Q: What about the IC50 [19] of the same molecule?
A: 1.79 µM

Q: For `CC1(C)[C@@H](O)CC[C@]2(C)[C@H]3C(=O)C=C4[C@@H]5C[C@@](C)(C(=O)OCCCOc6ccc(NC(=O)CCCC(=O)NO)cc6)CC[C@]5(C)CC[C@@]4(C)[C@]3(C)CC[C@@H]12`, which IC50 [18] is on record?
A: 4.43 µM

Q: What about the IC50 [19] of the same molecule?
A: 1.34 µM

Q: What does the source list for `CC1(C)[C@@H](O)CC[C@]2(C)[C@H]3C(=O)C=C4[C@@H]5C[C@@](C)(C(=O)OCCCOc6ccc(NC(=O)CCCCCC(=O)NO)cc6)CC[C@]5(C)CC[C@@]4(C)[C@]3(C)CC[C@@H]12`?
A: IC50 [18]: 4.31 µM; IC50 [19]: 1.62 µM

Q: How did the IC50 [18] turn out when `CC1(C)[C@@H](O)CC[C@]2(C)[C@H]3C(=O)C=C4[C@@H]5C[C@@](C)(C(=O)O)CC[C@]5(C)CC[C@@]4(C)[C@]3(C)CC[C@@H]12` [ENOXOLONE] was run?
A: 105 µM

Q: And the IC50 [19]?
A: 55.3 µM

Q: For `CC1(C)[C@@H](O)CC[C@]2(C)[C@H]3C(=O)C=C4[C@@H]5C[C@@](C)(C(=O)N6CCN(c7ccc(NC(=O)CCCCC(=O)NO)cc7)CC6)CC[C@]5(C)CC[C@@]4(C)[C@]3(C)CC[C@@H]12`, which IC50 [18] is on record?
A: 5.53 µM

Q: And the IC50 [19]?
A: 3.35 µM

Q: For `CC1(C)[C@@H](O)CC[C@]2(C)[C@H]3C(=O)C=C4[C@@H]5C[C@@](C)(C(=O)OCCOc6ccc(NC(=O)CCCC(=O)NO)cc6)CC[C@]5(C)CC[C@@]4(C)[C@]3(C)CC[C@@H]12`, which IC50 [18] is on record?
A: 6.94 µM

Q: What about the IC50 [19] of the same molecule?
A: 1.53 µM

Q: Which IC50 [18] does the source give for `CC1(C)[C@@H](O)CC[C@]2(C)[C@H]3C(=O)C=C4[C@@H]5C[C@@](C)(C(=O)N6CCN(c7ccc(NC(=O)CCCCCCC(=O)NO)cc7)CC6)CC[C@]5(C)CC[C@@]4(C)[C@]3(C)CC[C@@H]12` here?
A: 2.48 µM

Q: And the IC50 [19]?
A: 0.72 µM

Q: What does the source list for `CC1(C)[C@@H](O)CC[C@]2(C)[C@H]3C(=O)C=C4[C@@H]5C[C@@](C)(C(=O)OCCCOc6ccc(NC(=O)CCCCC(=O)NO)cc6)CC[C@]5(C)CC[C@@]4(C)[C@]3(C)CC[C@@H]12`?
A: IC50 [18]: 3.95 µM; IC50 [19]: 1.42 µM

Q: Which results are given for `COC(=O)[C@@]1(C)CC[C@]2(C)CC[C@]3(C)C(=CC(=O)[C@@H]4[C@@]5(C)C=C(C#N)C(=O)C(C)(C)[C@@H]5CC[C@]43C)[C@@H]2C1`?
A: Activity [1]: 1.89%; Activity [2]: 9%; Activity [3]: 3.57%; Activity [4]: 16.96%; Activity [5]: inactive; Activity [6]: 3.1%; Activity [7]: 19.18%; Activity [8]: 3.27%; Activity [9]: 13.31%; Activity [10]: 2.91%; Activity [11]: 2.52%; Activity [12]: 81.11%; IC50 [18]: 1.68 µM; Activity [13]: 77.42%; Activity [14]: 2.31%; IC50 [19]: 1.35 µM; Activity [15]: 87.34%; Activity [17]: 1.77%

Q: What does the source list for `CC1(C)[C@@H](O)CC[C@]2(C)[C@H]3C(=O)C=C4[C@@H]5C[C@@](C)(C(=O)OCCOc6ccc(NC(=O)CCCCC(=O)NO)cc6)CC[C@]5(C)CC[C@@]4(C)[C@]3(C)CC[C@@H]12`?
A: IC50 [18]: 8.22 µM; IC50 [19]: 2.08 µM

Q: With `CC1(C)[C@@H](O)CC[C@]2(C)[C@H]3C(=O)C=C4[C@@H]5C[C@@](C)(C(=O)NCCCC(=O)NO)CC[C@]5(C)CC[C@@]4(C)[C@]3(C)CC[C@@H]12` as the molecule, how does the IC50 [18] read?
A: 25.1 µM

Q: And the IC50 [19]?
A: 21.6 µM

Q: How did the IC50 [18] turn out when `CC1(C)[C@@H](O)CC[C@]2(C)[C@H]3C(=O)C=C4[C@@H]5C[C@@](C)(C(=O)NCCCCCC(=O)NO)CC[C@]5(C)CC[C@@]4(C)[C@]3(C)CC[C@@H]12` was run?
A: 13.6 µM

Q: What about the IC50 [19] of the same molecule?
A: 8.78 µM

Q: How did the IC50 [18] turn out when `CC1(C)[C@@H](O)CC[C@]2(C)[C@H]3C(=O)C=C4[C@@H]5C[C@@](C)(C(=O)OCCOc6ccc(NC(=O)CCCCCC(=O)NO)cc6)CC[C@]5(C)CC[C@@]4(C)[C@]3(C)CC[C@@H]12` was run?
A: 3.68 µM

Q: What about the IC50 [19] of the same molecule?
A: 2.83 µM

Q: With `CC1(C)[C@@H](O)CC[C@]2(C)[C@H]3C(=O)C=C4[C@@H]5C[C@@](C)(C(=O)N6CCN(c7ccc(NC(=O)CCCC(=O)NO)cc7)CC6)CC[C@]5(C)CC[C@@]4(C)[C@]3(C)CC[C@@H]12` as the molecule, how does the IC50 [18] read?
A: 11.8 µM

Q: What about the IC50 [19] of the same molecule?
A: 4.79 µM

Q: What does the source list for `CC1(C)[C@@H](O)CC[C@]2(C)[C@H]3C(=O)C=C4[C@@H]5C[C@@](C)(C(=O)OCCCOc6ccc(NC(=O)CCCCCCC(=O)NO)cc6)CC[C@]5(C)CC[C@@]4(C)[C@]3(C)CC[C@@H]12`?
A: IC50 [18]: 5.37 µM; IC50 [19]: 2.77 µM

Q: What does the source list for `CC1(C)[C@@H](O)CC[C@]2(C)[C@H]3C(=O)C=C4[C@@H]5C[C@@](C)(C(=O)NCCCCCCC(=O)NO)CC[C@]5(C)CC[C@@]4(C)[C@]3(C)CC[C@@H]12`?
A: IC50 [18]: 11.8 µM; IC50 [19]: 9.53 µM

Q: With `CC1(C)[C@@H](O)CC[C@]2(C)[C@H]3C(=O)C=C4[C@@H]5C[C@@](C)(C(=O)NCCCCC(=O)NO)CC[C@]5(C)CC[C@@]4(C)[C@]3(C)CC[C@@H]12` as the molecule, how does the IC50 [18] read?
A: 18.5 µM

Q: What about the IC50 [19] of the same molecule?
A: 15.5 µM
